What was measured:
[1] = system: NADPH oxidase activity in monocytes; assay: AOPP-HSA-induced NADPH oxidase activity in monocytes, lucigenin chemiluminescence; format: cell-based; settings: AOPP-HSA 2 mg/ml, counts/min over 40 minutes, FIG. 2B
Description: (§1) Human serum albumin (HSA) was exposed to HOCl at a molar HSA/HOCl molar ratio of 1/60. The AOPP-HSA preparation was incubated 30 minutes at room temperature and then dialysed overnight against PBS. Isolation of monocytes was performed by an indirect magnetic labelling system which allows the magnetic depletion of non monocytes i.e., T cells, B cells, NK cells, dendritic cells and basophils from a mononuclear cell suspension (obtained by blood sedimentation on a Ficoll gradient) using a cocktail of CD3, CD7, CD19, CD45RA, CD56 and anti-IgE antibodies. Purified monocytes were resuspended at a concentration of 2.5×10^6/ml in phenol-red free Hank's balanced salt solution (HBSS). The capacity of AOPP-HSA to activate monocyte or neutrophil oxygenation activities was measured by chemiluminescence using dimethylbiacridinium (lucigenin) for NADH oxidase activity or luminol for myeloperoxidase activity as chemoluminogenic substrates. One hundred microliters of monocyte suspension (2×10^5/ml) was automatically injected into the luminometer tubes containing 100 μl of HBSS (basal activity), or the tested preparations including: native HSA or AOPP-HSA at 2 mg/ml. Chemiluminescence production was measured in duplicate and luminescence intensity was expressed in counts/min integrated over a 40 minutes period.

[2] = system: patients undergoing dialysis; settings: oral administration; Atherosclerosis 120 (1996) 241-244; cited from earlier work
[3] = system: myeloperoxidase activity in neutrophils; assay: AOPP-HSA-induced myeloperoxidase activity in neutrophils, luminol chemiluminescence; format: cell-based; settings: neutrophils preincubated with various concentrations of NAC, AOPP-HSA 2 mg/ml, FIG. 1A
Description: (§2) Human serum albumin (HSA) was exposed to HOCl at a molar HSA/HOCl molar ratio of 1/60. The AOPP-HSA preparation was incubated 30 minutes at room temperature and then dialysed overnight against PBS. Neutrophils from the Ficoll gradient pellet were separated from erythrocytes by sedimentation in dextran. Residual erythrocytes were lysed by treating the cell pellet with lysis buffer containing ammonium chloride. Purified neutrophils were resuspended at a concentration of 5×10^6/ml in phenol-red free HBSS at pH 7.4 and preincubated with medium alone or various concentrations of NAC. The capacity of AOPP-HSA to activate monocyte or neutrophil oxygenation activities was measured by chemiluminescence using dimethylbiacridinium (lucigenin) for NADH oxidase activity or luminol for myeloperoxidase activity as chemoluminogenic substrates. One hundred microliters of monocyte suspension (2×10^5/ml) was automatically injected into the luminometer tubes containing 100 μl of HBSS (basal activity), or the tested preparations including: native HSA or AOPP-HSA at 2 mg/ml. Chemiluminescence production was measured in duplicate and luminescence intensity was expressed in counts/min integrated over a 40 minutes period.

[4] = system: myeloperoxidase activity in monocytes; assay: AOPP-HSA-induced myeloperoxidase activity in monocytes, luminol chemiluminescence; format: cell-based; settings: AOPP-HSA 2 mg/ml, counts/min over 40 minutes, FIG. 1B
Description: as §1

[5] = system: NADPH oxidase activity in neutrophils; assay: AOPP-HSA-induced NADPH oxidase activity in neutrophils, lucigenin chemiluminescence; format: cell-based; settings: neutrophils preincubated with various concentrations of NAC, AOPP-HSA 2 mg/ml, FIG. 2A
Description: as §2

CC(=O)N[C@@H](CS)C(=O)O [NAC, N-acetylcysteine]
inhibition of NADPH oxidase activity triggered by AOPP-HSA [1]: dose-dependent inhibition
efficacy in the treatment of patients undergoing dialysis [2]: without efficacy
inhibition of myeloperoxidase activity triggered by AOPP-HSA [3]: dose-dependent inhibition
inhibition of myeloperoxidase activity triggered by AOPP-HSA [4]: dose-dependent inhibition
inhibition of NADPH oxidase activity triggered by AOPP-HSA [5]: dose-dependent inhibition

— patent US6627659B1, “Methods of decreasing the effects of oxidative stress using N-acetylcysteine” (Zambon Group S.p.A., priority 1999, dated 2003)
